Columns and labels:
in vitro = conditions: rat, serum, pH 7.4
[1] = 48 h
[2] = 24 h

SMILES: CC(C)C[C@H](NC(=O)[C@H](CC(=O)O)NC(=O)CNC(=O)[C@H](CCCNC(=N)N)NC(=O)[C@H](CC(C)C)NC(=O)[C@H](CC(N)=O)NC(=O)[C@@H]1CCCN1C(=O)[C@@H](NC(=O)[C@H](C)NC(=O)[C@H](CC(N)=O)NC(=O)COCCOCCOCCOCCOCCN)C(C)C)C(=O)N[C@@H](CCC(N)=O)C(=O)N[C@H](C(=O)N[C@@H](CC(C)C)C(=O)N[C@@H](C)C(=O)N[C@@H](CCC(N)=O)C(=O)N[C@@H](CCCCN)C(=O)N[C@H](C(=O)N[C@@H](C)C(=O)N[C@@H](CCCNC(=N)N)C(=O)N[C@H](C(=O)O)[C@@H](C)O)C(C)C)C(C)C [Compound 18]
- remaining at 24 h (in vitro): ~60%
- remaining at 48 h (in vitro): ~40%

SMILES: CC(C)C[C@H](NC(=O)[C@H](CC(=O)O)NC(=O)CNC(=O)[C@H](CCCNC(=N)N)NC(=O)[C@H](CC(C)C)NC(=O)[C@H](CC(N)=O)NC(=O)[C@@H]1CCCN1C(=O)[C@@H](NC(=O)[C@H](C)NC(=O)[C@H](CC(N)=O)NC(=O)COCCOCCOCCOCCOCCOCCOCCOCCN)C(C)C)C(=O)N[C@@H](CCC(N)=O)C(=O)N[C@H](C(=O)N[C@@H](CC(C)C)C(=O)N[C@@H](C)C(=O)N[C@@H](CCC(N)=O)C(=O)N[C@@H](CCCCN)C(=O)N[C@H](C(=O)N[C@@H](C)C(=O)N[C@@H](CCCNC(=N)N)C(=O)N[C@H](C(=O)O)[C@@H](C)O)C(C)C)C(C)C [Compound 19]
- peptide remaining intact in rat serum [1]: > 58%
- remaining at 24 h (in vitro): > 70%

SMILES: CC(C)C[C@H](NC(=O)[C@H](CC(=O)O)NC(=O)CNC(=O)[C@H](CCCNC(=N)N)NC(=O)[C@H](CC(C)C)NC(=O)[C@H](CC(N)=O)NC(=O)[C@@H]1CCCN1C(=O)[C@@H](NC(=O)[C@H](C)NC(=O)[C@H](CC(N)=O)NC(=O)CCOCCOCCOCCOCCOCCN)C(C)C)C(=O)N[C@@H](CCC(N)=O)C(=O)N[C@H](C(=O)N[C@@H](CC(C)C)C(=O)N[C@@H](C)C(=O)N[C@@H](CCC(N)=O)C(=O)N[C@@H](CCCCN)C(=O)N[C@H](C(=O)N[C@@H](C)C(=O)N[C@@H](CCCNC(=N)N)C(=O)N[C@H](C(=O)O)[C@@H](C)O)C(C)C)C(C)C [Compound 20]
- remaining at 24 h (in vitro): ~60%
- remaining at 48 h (in vitro): ~40%

SMILES: CC(C)C[C@H](NC(=O)[C@H](CC(=O)O)NC(=O)CNC(=O)[C@H](CCCNC(=N)N)NC(=O)[C@H](CC(C)C)NC(=O)[C@H](CC(N)=O)NC(=O)[C@@H]1CCCN1C(=O)[C@@H](NC(=O)[C@H](C)NC(=O)[C@H](CC(N)=O)NC(=O)CCOCCOCCOCCOCCOCCOCCOCCOCCOCCOCCOCCOCCOCCOCCOCCOCCOCCOCCOCCOCCN)C(C)C)C(=O)N[C@@H](CCC(N)=O)C(=O)N[C@H](C(=O)N[C@@H](CC(C)C)C(=O)N[C@@H](C)C(=O)N[C@@H](CCC(N)=O)C(=O)N[C@@H](CCCCN)C(=O)N[C@H](C(=O)N[C@@H](C)C(=O)N[C@@H](CCCNC(=N)N)C(=O)N[C@H](C(=O)O)[C@@H](C)O)C(C)C)C(C)C [Compound 23]
- remaining at 24 h (in vitro): ~90%
- remaining at 48 h (in vitro): > 70%

SMILES: CC(C)C[C@H](NC(=O)[C@H](CC(=O)O)NC(=O)CNC(=O)[C@H](CCCNC(=N)N)NC(=O)[C@H](CC(C)C)NC(=O)[C@H](CC(N)=O)NC(=O)[C@@H]1CCCN1C(=O)[C@@H](NC(=O)[C@H](CCCCNC(=O)CCCC[C@@H]1SC[C@@H]2NC(=O)N[C@@H]21)NC(=O)[C@H](CC(N)=O)NC(=O)COCCOCCNC(=O)CN(CCN(CCN(CC(=O)O)CC(=O)O)CC(=O)O)CC(=O)O)C(C)C)C(=O)N[C@@H](CCC(N)=O)C(=O)N[C@H](C(=O)N[C@@H](CC(C)C)C(=O)N[C@@H](C)C(=O)N[C@@H](CCC(N)=O)C(=O)N[C@@H](CCCCN)C(=O)N[C@H](C(=O)N[C@@H](C)C(=O)N[C@@H](CCCNC(=N)N)C(=O)N[C@H](C(=O)O)[C@@H](C)O)C(C)C)C(C)C [Compound 25]
- peptide remaining intact in human plasma [2]: around 80%

SMILES: CC(C)C[C@H](NC(=O)[C@H](CC(=O)O)NC(=O)CNC(=O)[C@H](CCCNC(=N)N)NC(=O)[C@H](CC(C)C)NC(=O)[C@H](CC(N)=O)NC(=O)[C@@H]1CCCN1C(=O)[C@@H](NC(=O)[C@H](CCCCNC(=O)CCCC[C@@H]1SC[C@@H]2NC(=O)N[C@@H]21)NC(=O)[C@H](CC(N)=O)NC(=O)CCOCCOCCOCCOCCOCCOCCOCCOCCOCCOCCOCCOCCOCCOCCOCCOCCOCCOCCOCCOCCNC(=O)CN(CCN(CCN(CC(=O)O)CC(=O)O)CC(=O)O)CC(=O)O)C(C)C)C(=O)N[C@@H](CCC(N)=O)C(=O)N[C@H](C(=O)N[C@@H](CC(C)C)C(=O)N[C@@H](C)C(=O)N[C@@H](CCC(N)=O)C(=O)N[C@@H](CCCCN)C(=O)N[C@H](C(=O)N[C@@H](C)C(=O)N[C@@H](CCCNC(=N)N)C(=O)N[C@H](C(=O)O)[C@@H](C)O)C(C)C)C(C)C [Compound 30]
- peptide remaining intact in human plasma [2]: around 80%
